Values joined by “and” are separate entries in the source; they are usually repeats but may differ in a detail not shown here. Equal entries are not always repeated.
Experiments:
[1] = tested on: Thiobacillus ferrooxidans; test: S^0 oxidation by resting cells (oxygen consumption rate, Oxygraph); format: cell-based
[2] = tested on: Thiobacillus ferrooxidans; test: Fe^2+ oxidation by resting cells (oxygen consumption rate, Oxygraph); format: cell-based; settings: for inhibition of Fe^2+ oxidation: pH 3
Procedure: For the resting cell experiments, cells from large scale growth were filtered through Whatman™ No. 1 filter paper under suction before centrifugation at 8000× g. The cells were washed in 0.1 M β-alanine-H2SO4 (pH 2.3) and suspended in the same buffer to a concentration of 50 mg wet cells per ml.
The rate of ferrous iron and sulfur oxidation by the resting cells was determined by the oxygen consumption rate (nmol O2/min) in a Gilson™ Oxygraph with a Clark™ oxygen electrode at 25° C. The reaction mixture in a total volume of 1.2 ml contained 10-100 μl cell suspension, 0.5 μmol FeSO4 or 0.1 ml elemental sulfur suspension (32 mg in 500 ppm Tween-80™) and 0.1 M β-alanine-H2SO4 at pH 3.0 (standard condition) or varying inhibitory concentrations of salts at pH 3.0, as described below. Specifically, the effect of standard biological oxidation inhibitors, sodium azide and sodium cyanide in 0.1 M β-alanine-H2SO4 at pH 3.0 was studied.

T. ferrooxidans [3] = tested on: T. ferrooxidans
Procedure: (§1) Growth inhibition studies were carried out in a Micro-oxymax™ respirometer at Cominco Research in Trail, British Columbia, wherein the O2 and CO2 consumption (at 52 minute intervals) of cultures at 26° C. were monitored over time (45-50 hours). Each flask contained a total volume of 100 ml, comprised of 5 ml inoculum culture plus 95 ml HP medium with varying concentrations of inhibitors plus Fe^2+ or S^0 as growth substrate (33.3 g FeSO4.7H2O or 25 g sulfur per liter). In the S^0 medium, HP medium was supplemented with 18 mg FeSO4.7H2O per liter. A growth curve was generated from the monitored O2 and CO2 consumption rates over time, as described below.

T. thiooxidans [4] = tested on: T. thiooxidans
Procedure: as §1

[5] = tested on: T. ferrooxidans and T. thiooxidans
Procedure: (§2) Bacterial leaching was performed in shake flask experiments with 250 ml Erlenmeyer™ flasks containing 95 ml of HP medium with and without inhibitors unless otherwise specified, 4 ml of inoculum (Fe^2+-grown T. ferrooxidans, S^0-grown T. thiooxidans or both) and 5 g of floatation tailings supplied by Cominco Research were used, as described below. The flasks were grown at 26° C. on a rotary shaker at 150 rpm for 14 days. At various time intervals, 5 ml samples were taken to determine the concentrations of dissolved zinc and iron in the leachate as well as the percentage of zinc and iron remaining in the precipitate (after filtration of the leachate).

[6] = tested on: bioleaching of chalcopyrite (CuFeS2) and sphalerite mixture; format: cell-based
Procedure: as §2

T. thiooxidans [7] = test: Bacterial leaching of flotation tailings with T. thiooxidans; format: cell-based, Thiobacillus thiooxidans
Procedure: as §2

T. ferrooxidans [8] = format: cell-based, Thiobacillus ferrooxidans
Procedure: as §2

[9] = tested on: bacterial leaching of a complex sulfide ore; test: Bacterial leaching of a complex sulfide ore from the Flin Flon mine; format: cell-based, Thiobacillus thiooxidans SM-7
Procedure: In this embodiment of the invention, bacterial strains Thiobacillus ferrooxidans SM-4 and Thiobacillus thiooxidans SM-6 (FIGS. 1, 3 and 4 and Table 2) or SM-7 (Table 5) were used. Specifically, T. ferrooxidans was grown on Fe^2+ or S^0 while T. thiooxidans was grown only on sulfur. HP medium, described in Suzuki et al, 1990, Appl Environ Microbiol 56:1620-1626, consisting of: 0.4 g (NH4)2SO4, 0.1 g K2HPO4, 0.4 g MgSO4.7H2O per liter, adjusted to pH 2.3 with H2SO4 was used for growth of bacteria on Fe^2+, for growth in a Micro-oxymax™ respirometer (both Fe^2+ and S^0 growth), and for mineral leaching experiments, as described below. For growth on Fe^2+, 33.3 g FeSO4.7H2O per liter (pH 2.3, filter-sterilized) was added to the above-described HP medium. Cultures were grown in shake flasks (100 ml) with 10% inoculum (v/v) in 250 ml Erlenmeyer™ flasks at 25° C. at 120 rpm for 24 hours. It is of note that for large scale growth, medium volume and flask size were increased.
. In fact, the highest level of Cu leaching using this ore is nearly five times greater than previously reported values in the absence of additional anions (Lizama and Suzuki, 1988, Biotechnol Bioeng 32: 110-116). […] That is, copper and zinc can be recovered from a complex ore without the need for separation simply by replacing the media following completion of copper leaching because of this lag time.

[10] = Acidithiobacillus ferrooxidans, pH 3, read-out: inhibition of S^0 oxidation
[11] = Acidithiobacillus ferrooxidans, pH 3, read-out: inhibition of Fe^2+ oxidation

Compound | inhibition at 10 µM [1, 10] [%] | inhibition at 50 µM [1, 10] [%] | inhibition at 10 µM [2, 11] [%] | inhibition at 50 µM [2, 11] [%] | Fe^2+ oxidation during growth (T. ferrooxidans [3]) | S^0 oxidation during growth (T. thiooxidans [4]) | Fe leaching [5] | inhibition of Fe leaching relative to Zn leaching [5] | extraction of Zn [6] | iron oxidation [6] | Fe leaching (T. thiooxidans [7]) | inhibition of Fe^2+ oxidation [2] | reduction in Zn leaching (T. ferrooxidans [8]) [%] | Cu leaching [9] | Zn leaching [9] | Fe leaching (T. ferrooxidans [8]) | Zn leaching (T. ferrooxidans [8]) | inhibition of S^0 oxidation ([1]; pH 3) [%]
[N-]=[N+]=[N-] [sodium azide, reference compound] | 35 | 90 | 90 | 95 | – | – | – | – | – | – | – | – | – | – | – | – | – | –
potassium phosphate | – | – | – | – | inhibited | stimulated | no Fe leaching | most effective inhibitor of Fe leaching without inhibiting Zn leaching extensively | slightly reduced | reduced | strongly inhibited | 60% | 50 | stimulation | stimulation | – | – | –
potassium nitrate | – | – | – | – | – | – | – | – | – | – | reduced Fe leaching at high concentrations, albeit to a much smaller degree | 90% and 100% | – | – | – | reduced the Fe leaching similar to phosphate | considerably inhibited | –
potassium chloride | – | – | – | – | inhibited | stimulated | – | – | stimulated | – | reduced Fe leaching at high concentrations, albeit to a much smaller degree | 30% and 40% | – | stimulation | stimulation | – | – | 10
